Laboratory results from patent US12409112B2, “Pressurized nanoemulsion” (Biofrontera Bioscience GmbH, priority 2023, dated 2025).

Legend:
[1] = cited from earlier work
[2] = TC content over storage time in BF220 with PX=4%; type: physicochemical; conditions: BF220 with PX=4% and 0.1% TC
Description: Nanoemulsion formulations BF220 TC=0.1% glass and BF220 TC=0.1% foam were prepared as described in Example 6. The nanoemulsion formulations were stored at 2-8° C. The content of TC was determined at 0 (starting point) and various time points during the 36 months storage period.

[3] = room temperature; cited from earlier work
[4] = ALA content over storage time in BF200 with PX=2%; type: physicochemical; conditions: BF200 with PX=2% and 3% ALA
Description: Nanoemulsion formulations BF200 PX=2% glass and BF200 PX=2% foam were prepared as described in Example 5. The nanoemulsion formulations were stored at 25° C. and 2-8° C. The content of ALA was determined at 0 (starting point) and various time points during the 36 months storage period.

Preservation of API content, pressurized cans versus conventional storing units (glass vials) ([2]; 2-8° C.)	TC content ([2]; after 36 months storage at 2-8° C.)	Preservation of API content, pressurized cans versus conventional storing units (glass vials) ([4]; 25° C. and 2-8° C., all conditions)	ALA content ([4]; after 36 months storage at 2-25° C.)	SMILES	octanol-water partition coefficient (log P) [1]	Stability in aqueous formulations [3]
better	at least 90%			C=CC[C@@H]1/C=C(\C)C[C@H](C)C[C@H](OC)[C@H]2O[C@@](O)(C(=O)C(=O)N3CCCC[C@H]3C(=O)O[C@H](/C(C)=C/[C@@H]3CC[C@@H](O)[C@H](OC)C3)[C@H](C)[C@@H](O)CC1=O)[C@H](C)C[C@@H]2OC [TC, Tacrolimus]	> 3	approx. 90 days
		better	at least 90%	NCC(=O)CCC(=O)O [ALA, 5-aminolevulinic acid]		
